Measured values reported in ChEMBL document CHEMBL4715869, “N-(Pyrimidin-2-yl)-1,2,3,4-tetrahydroisoquinolin-6-amine Derivatives as Selective Janus Kinase 2 Inhibitors for the Treatment of Myeloproliferative Neoplasms” (J Med Chem, 2020).

Legend:
Homo sapiens = species: Homo sapiens; assay: Selectivity index, ratio of IC50 for inhibition of FLT3 ITD mutant in human MOLM13 cells to IC50 for inhibition of JAK2 V617F mutant in human SET-2 cells; assay type: cell-based
[1] = system: Receptor-type tyrosine-protein kinase FLT3 (Homo sapiens), P36888 [UNDEFINED MUTATION]; assay: Inhibition of FLT3 ITD mutant in human MOLM13 cells assessed as residual activity at 100 nM relative to control; assay type: cell-based; settings: MOLM-13
[2] = Selectivity index, ratio of IC50 for inhibition of recombinant human TYK2 (875 to end residues) to IC50 for inhibition of recombinant human JAK2 (808 to end residues)
[3] = target: Non-receptor tyrosine-protein kinase TYK2 (Homo sapiens, UniProt P29597); assay: Inhibition of recombinant human TYK2 (875 to end residues) using GGMEDIYFEFMGGKKK as substrate incubated for 40 mins in presence of [gamma33P]ATP by scintillation counting based radiometry assay
[4] = Selectivity index, ratio of IC50 for inhibition of human JAK1 (866 to end residues) to IC50 for inhibition of recombinant human JAK2 (808 to end residues)
[5] = target: Receptor-type tyrosine-protein kinase FLT3 (Homo sapiens, UniProt P36888, D835Y); assay: Inhibition of recombinant human FLT3 D835Y mutant (564 to end residues) using EAIYAAPFAKKK as substrate at 40 mins in presence of [gamma-33ATP] by scintillation counting based radiometry assay
[6] = target: Tyrosine-protein kinase JAK1 (Homo sapiens, UniProt P23458); assay: Inhibition of human JAK1 (866 to end residues) using GEEPLYWSFPAKKK as substrate after 40 mins by [gamma-33ATP] radiometric assay
[7] = target: T1, Tyrosine-protein kinase JAK3 (Homo sapiens, UniProt P52333); assay: Inhibition of recombinant human JAK3 (781 to end residues) using GGEEEEYFELVKKKK as substrate measured after 40 mins in presence of [gamm33P]ATP by scintillation counting method
T1 sequence (P52333 whole entry): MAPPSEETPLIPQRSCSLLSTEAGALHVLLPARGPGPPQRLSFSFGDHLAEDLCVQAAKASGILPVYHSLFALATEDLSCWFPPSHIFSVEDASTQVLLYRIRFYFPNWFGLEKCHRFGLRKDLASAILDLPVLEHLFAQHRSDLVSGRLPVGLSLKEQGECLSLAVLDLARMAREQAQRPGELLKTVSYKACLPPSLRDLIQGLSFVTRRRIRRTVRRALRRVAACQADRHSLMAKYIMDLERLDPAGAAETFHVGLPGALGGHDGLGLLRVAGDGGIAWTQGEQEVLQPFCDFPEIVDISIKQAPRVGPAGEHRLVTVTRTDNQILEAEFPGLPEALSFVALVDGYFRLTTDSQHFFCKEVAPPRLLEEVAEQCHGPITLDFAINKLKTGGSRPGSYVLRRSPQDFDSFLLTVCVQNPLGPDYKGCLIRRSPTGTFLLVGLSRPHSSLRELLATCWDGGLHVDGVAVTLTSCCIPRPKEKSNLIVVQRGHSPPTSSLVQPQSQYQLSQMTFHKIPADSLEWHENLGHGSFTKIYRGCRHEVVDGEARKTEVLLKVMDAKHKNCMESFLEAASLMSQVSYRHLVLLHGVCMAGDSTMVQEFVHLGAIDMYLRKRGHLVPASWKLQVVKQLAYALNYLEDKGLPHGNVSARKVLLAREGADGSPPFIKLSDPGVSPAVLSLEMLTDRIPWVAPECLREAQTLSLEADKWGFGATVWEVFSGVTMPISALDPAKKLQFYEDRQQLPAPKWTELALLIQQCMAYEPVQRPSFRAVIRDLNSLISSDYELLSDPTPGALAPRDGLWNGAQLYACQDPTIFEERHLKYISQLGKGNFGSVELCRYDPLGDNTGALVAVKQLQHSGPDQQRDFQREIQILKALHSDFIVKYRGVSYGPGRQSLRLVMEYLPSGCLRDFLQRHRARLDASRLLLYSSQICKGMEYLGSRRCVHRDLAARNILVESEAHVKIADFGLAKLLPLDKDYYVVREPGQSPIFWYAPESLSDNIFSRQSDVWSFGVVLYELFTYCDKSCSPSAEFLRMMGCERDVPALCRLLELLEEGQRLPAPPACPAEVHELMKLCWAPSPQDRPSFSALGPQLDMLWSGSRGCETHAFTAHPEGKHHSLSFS

[8] = Selectivity index, ratio of IC50 for inhibition of recombinant human JAK3 (781 to end residues) to IC50 for inhibition of recombinant human JAK2 (808 to end residues)
[9] = Selectivity index, ratio of IC50 for inhibition of recombinant human FLT3 D835Y mutant (564 to end residues) to IC50 for inhibition of recombinant human JAK2 (808 to end residues)
[10] = target: Tyrosine-protein kinase JAK2 (Homo sapiens, UniProt O60674); assay: Inhibition of recombinant human JAK2 (808 to end residues) KTFCGTPEYLAPEVRREPRILSEEEQEMFRDFDYIADWC as substrate measured after 40 mins in presence of [gamm33P]ATP by scintillation counting method
L02 = assay: Cytotoxicity against human L02 cells assessed as reduction in cell viability incubated for 72 hrs by MTT assay; assay type: cell-based; settings: L02, 72 h
Vero = assay: Cytotoxicity against African green monkey Vero cells assessed as reduction in cell viability incubated for 72 hrs by MTT assay; assay type: cell-based; settings: Chlorocebus sabaeus
[11] = Cytotoxicity against rat H9c2(2-1) cells assessed as reduction in cell viability incubated for 72 hrs by MTT assay; assay type: cell-based; settings: H9c2, 72 h

Tyrosine-protein kinase JAK2, sequence (O60674 whole entry): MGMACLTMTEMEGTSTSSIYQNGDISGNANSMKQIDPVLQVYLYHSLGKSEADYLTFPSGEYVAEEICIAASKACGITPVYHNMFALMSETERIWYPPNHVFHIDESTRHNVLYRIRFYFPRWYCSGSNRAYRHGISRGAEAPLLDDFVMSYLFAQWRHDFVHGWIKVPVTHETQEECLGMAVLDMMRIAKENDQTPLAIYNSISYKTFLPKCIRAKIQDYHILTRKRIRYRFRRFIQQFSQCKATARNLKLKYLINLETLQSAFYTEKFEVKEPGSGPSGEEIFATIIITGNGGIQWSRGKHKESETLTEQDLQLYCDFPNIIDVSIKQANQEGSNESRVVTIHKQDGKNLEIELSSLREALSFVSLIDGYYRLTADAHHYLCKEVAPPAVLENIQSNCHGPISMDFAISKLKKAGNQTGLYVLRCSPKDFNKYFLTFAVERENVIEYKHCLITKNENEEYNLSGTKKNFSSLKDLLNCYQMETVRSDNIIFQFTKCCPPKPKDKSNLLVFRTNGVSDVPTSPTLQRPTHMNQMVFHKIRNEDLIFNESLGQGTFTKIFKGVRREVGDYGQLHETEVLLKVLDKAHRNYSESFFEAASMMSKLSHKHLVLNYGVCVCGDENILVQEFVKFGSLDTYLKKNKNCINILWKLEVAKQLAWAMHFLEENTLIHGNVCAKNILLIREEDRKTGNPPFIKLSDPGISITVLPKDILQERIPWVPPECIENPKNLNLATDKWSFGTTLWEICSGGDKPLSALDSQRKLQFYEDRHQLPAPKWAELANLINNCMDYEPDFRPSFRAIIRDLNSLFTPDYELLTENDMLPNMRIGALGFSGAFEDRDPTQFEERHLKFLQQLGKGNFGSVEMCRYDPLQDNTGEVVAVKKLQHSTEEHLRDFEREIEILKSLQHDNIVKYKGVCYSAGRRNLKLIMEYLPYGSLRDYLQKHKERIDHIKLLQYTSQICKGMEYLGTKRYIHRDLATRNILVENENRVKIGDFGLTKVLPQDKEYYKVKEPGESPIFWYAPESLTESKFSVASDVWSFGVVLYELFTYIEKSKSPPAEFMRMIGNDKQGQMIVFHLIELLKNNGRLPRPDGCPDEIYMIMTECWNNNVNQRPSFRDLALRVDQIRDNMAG
Non-receptor tyrosine-protein kinase TYK2, sequence (P29597 whole entry): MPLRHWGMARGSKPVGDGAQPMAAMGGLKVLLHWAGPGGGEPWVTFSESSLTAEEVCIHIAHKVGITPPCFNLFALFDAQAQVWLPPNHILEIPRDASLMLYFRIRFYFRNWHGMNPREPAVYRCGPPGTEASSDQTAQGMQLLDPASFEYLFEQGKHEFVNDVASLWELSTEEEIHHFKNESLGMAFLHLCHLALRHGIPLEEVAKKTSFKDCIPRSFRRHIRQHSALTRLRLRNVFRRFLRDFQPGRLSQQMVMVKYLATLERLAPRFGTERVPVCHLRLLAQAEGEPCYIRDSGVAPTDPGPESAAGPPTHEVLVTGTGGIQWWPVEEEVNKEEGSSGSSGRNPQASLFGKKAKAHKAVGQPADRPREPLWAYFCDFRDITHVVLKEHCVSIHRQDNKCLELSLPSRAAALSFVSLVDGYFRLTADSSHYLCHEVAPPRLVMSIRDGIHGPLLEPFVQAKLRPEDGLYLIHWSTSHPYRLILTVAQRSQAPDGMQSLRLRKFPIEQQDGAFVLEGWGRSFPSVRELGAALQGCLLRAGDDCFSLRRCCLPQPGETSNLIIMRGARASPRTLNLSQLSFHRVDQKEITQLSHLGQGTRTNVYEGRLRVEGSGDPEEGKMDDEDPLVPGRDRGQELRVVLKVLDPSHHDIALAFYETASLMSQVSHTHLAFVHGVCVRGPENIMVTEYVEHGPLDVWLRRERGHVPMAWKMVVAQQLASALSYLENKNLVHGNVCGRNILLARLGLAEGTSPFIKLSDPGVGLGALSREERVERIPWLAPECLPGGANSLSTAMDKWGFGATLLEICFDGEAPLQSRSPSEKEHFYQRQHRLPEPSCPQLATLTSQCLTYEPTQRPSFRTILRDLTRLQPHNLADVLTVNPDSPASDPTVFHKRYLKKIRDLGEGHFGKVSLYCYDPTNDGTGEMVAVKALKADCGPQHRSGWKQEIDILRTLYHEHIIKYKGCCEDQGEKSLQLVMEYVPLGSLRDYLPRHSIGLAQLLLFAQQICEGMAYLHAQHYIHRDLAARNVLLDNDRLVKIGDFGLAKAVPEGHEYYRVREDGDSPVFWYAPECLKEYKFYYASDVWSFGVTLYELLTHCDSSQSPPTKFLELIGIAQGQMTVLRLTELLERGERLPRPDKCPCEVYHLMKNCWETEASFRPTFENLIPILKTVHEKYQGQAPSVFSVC
Tyrosine-protein kinase JAK1, sequence (P23458 whole entry): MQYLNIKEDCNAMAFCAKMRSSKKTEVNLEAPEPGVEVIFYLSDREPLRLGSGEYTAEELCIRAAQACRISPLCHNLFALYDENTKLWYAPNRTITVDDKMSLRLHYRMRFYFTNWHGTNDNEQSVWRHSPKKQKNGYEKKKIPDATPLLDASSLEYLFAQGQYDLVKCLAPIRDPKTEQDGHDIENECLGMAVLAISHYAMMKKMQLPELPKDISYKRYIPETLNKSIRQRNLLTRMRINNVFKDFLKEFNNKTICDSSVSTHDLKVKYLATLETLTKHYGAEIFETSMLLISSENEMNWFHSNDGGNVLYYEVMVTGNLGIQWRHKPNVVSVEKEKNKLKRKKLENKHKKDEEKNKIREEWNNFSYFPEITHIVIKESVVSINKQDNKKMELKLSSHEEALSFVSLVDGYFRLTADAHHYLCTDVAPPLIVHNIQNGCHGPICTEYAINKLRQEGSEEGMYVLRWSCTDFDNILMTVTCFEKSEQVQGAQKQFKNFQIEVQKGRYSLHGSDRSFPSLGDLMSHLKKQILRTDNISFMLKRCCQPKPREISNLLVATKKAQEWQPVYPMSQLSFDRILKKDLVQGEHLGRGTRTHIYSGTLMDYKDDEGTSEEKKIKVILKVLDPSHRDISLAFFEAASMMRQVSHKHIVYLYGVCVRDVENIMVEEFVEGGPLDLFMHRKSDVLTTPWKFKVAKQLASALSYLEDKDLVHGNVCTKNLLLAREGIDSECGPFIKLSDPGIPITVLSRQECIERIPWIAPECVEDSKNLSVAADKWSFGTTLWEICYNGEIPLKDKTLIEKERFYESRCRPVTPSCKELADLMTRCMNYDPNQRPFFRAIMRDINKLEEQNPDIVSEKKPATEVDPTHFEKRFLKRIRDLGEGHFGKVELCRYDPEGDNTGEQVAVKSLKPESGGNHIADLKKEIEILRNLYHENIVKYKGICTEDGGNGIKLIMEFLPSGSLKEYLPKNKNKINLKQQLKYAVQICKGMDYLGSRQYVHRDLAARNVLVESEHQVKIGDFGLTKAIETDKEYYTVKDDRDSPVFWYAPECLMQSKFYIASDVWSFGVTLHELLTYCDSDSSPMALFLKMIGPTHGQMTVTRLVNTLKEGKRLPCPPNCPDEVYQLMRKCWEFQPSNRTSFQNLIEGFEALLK

## COC(=O)/C=C/CN1CCc2ccc(Nc3ncc(C)c(-c4cnn(C(C)C)c4)n3)cc2C1
Homo sapiens
  Ratio IC50: 6
[1]
  Activity: 43%

## Cc1cnc(Nc2ccc3c(c2)CCN(C(=O)/C=C/C(=O)c2ccccc2)C3)nc1-c1cnn(C(C)C)c1
[2]
  Ratio IC50: 7.9
[3]
  IC50: 79 nM
[4]
  Ratio IC50: 4.7
[5]
  IC50: 34 nM
[6]
  IC50: 47 nM
[7]
  IC50: 120 nM
[8]
  Ratio IC50: 12
Homo sapiens
  Ratio IC50: 8.8
[1]
  Activity: 41%
[9]
  Ratio IC50: 3.4
[10]
  IC50: 10 nM

## Cc1cnc(Nc2ccc3c(c2)CCN(CCCCCO)C3)nc1-c1cnn(C(C)C)c1
[1]
  Activity: 63%

## Cc1cnc(Nc2ccc3c(c2)CN(CC#N)CC3)nc1-c1cnn(C(C)C)c1
Homo sapiens
  Ratio IC50: 4.5
[1]
  Activity: 51%

## C#CCN1CCc2cc(Nc3ncc(C)c(-c4cnn(C(C)C)c4)n3)ccc2C1
[1]
  Activity: 79%

## Cc1cnc(Nc2ccc3c(n2)CCN(CCCO)C3)nc1-c1cnn(C(C)C)c1
Homo sapiens
  Ratio IC50: 1.1
[1]
  Activity: 88%

## Cc1cnc(Nc2ccc3c(c2)CCN(CCC#N)C3)nc1-c1cnn(C(C)C)c1
Homo sapiens
  Ratio IC50: 1.2
[1]
  Activity: 35%

## CC(C)n1cc(-c2nc(Nc3ccc4c(c3)CCN(CCCCCO)C4)ncc2F)cn1
Homo sapiens
  Ratio IC50: 0.72
[1]
  Activity: 42%

## Cc1cnc(Nc2ccc3c(c2)CN(C(=O)/C=C/C(=O)c2ccccc2)CC3)nc1-c1cnn(C(C)C)c1
[2]
  Ratio IC50: 26
[3]
  IC50: 52 nM
[4]
  Ratio IC50: 15
[5]
  IC50: 16 nM
[6]
  IC50: 30 nM
[7]
  IC50: 89 nM
[8]
  Ratio IC50: 44.5
Homo sapiens
  Ratio IC50: 12.5
[1]
  Activity: 47%
[9]
  Ratio IC50: 8
[10]
  IC50: 2 nM

## COC(=O)CCCN1CCc2cc(Nc3ncc(C)c(-c4cnn(C(C)C)c4)n3)ccc2C1
Homo sapiens
  Ratio IC50: 1.2

## Cc1cnc(Nc2ccc3c(c2)CCN(CCCO)C3)nc1-c1cnn(C(C)C)c1
Homo sapiens
  Ratio IC50: 3.4
[1]
  Activity: 62%

## CCNC(=O)N1CCc2cc(Nc3ncc(C)c(-c4cnn(C(C)C)c4)n3)ccc2C1
Homo sapiens
  Ratio IC50: 0.45

## Cc1cnc(Nc2ccc3c(c2)CCN(C(=O)Nc2cccc(Cl)c2)C3)nc1-c1cnn(C(C)C)c1
Homo sapiens
  Ratio IC50: 0.6
[1]
  Activity: 99%

## Cc1cnc(Nc2ccc3c(c2)CCN(C/C=C/C(=O)O)C3)nc1-c1cnn(C(C)C)c1
Homo sapiens
  Ratio IC50: 2.5
[1]
  Activity: 78%

## Cc1ccc(C(=O)CCC(=O)N2CCc3cc(Nc4ncc(C)c(-c5cnn(C(C)C)c5)n4)ccc3C2)cc1
Homo sapiens
  Ratio IC50: 1.7

## CC(C)n1cc(-c2nc(Nc3ccc4c(c3)CCN(CCCO)C4)ncc2F)cn1
Homo sapiens
  Ratio IC50: 1.4
[1]
  Activity: 44%

## Cc1cnc(Nc2ccc3c(c2)CCN(CCO)C3)nc1-c1cnn(C(C)C)c1
Homo sapiens
  Ratio IC50: 3.9
[1]
  Activity: 66%

## CCN(CC)C(=O)/C=C/CN1CCc2cc(Nc3ncc(C)c(-c4cnn(C(C)C)c4)n3)ccc2C1
Homo sapiens
  Ratio IC50: 2
[1]
  Activity: 66%

## Cc1ccc(C(=O)/C=C/C(=O)N2CCc3ccc(Nc4ncc(C)c(-c5cnn(C(C)C)c5)n4)cc3C2)cc1
L02
  IC50: 2030 nM
[3]
  IC50: 30 nM
Vero
  IC50: 2470 nM
[5]
  IC50: 18 nM
[7]
  IC50: 28 nM
[1]
  Activity: 59%
[11]
  IC50: 1690 nM

## CCCNC(=O)N1CCc2cc(Nc3ncc(C)c(-c4cnn(C(C)C)c4)n3)ccc2C1
Homo sapiens
  Ratio IC50: 1.2

## CC(C)n1cc(-c2nc(Nc3ccc4c(c3)CCN(CCO)C4)ncc2F)cn1
Homo sapiens
  Ratio IC50: 0.84
[1]
  Activity: 43%

## Cc1cnc(Nc2ccc3c(c2)CN(CCO)C3)nc1-c1cnn(C(C)C)c1
[1]
  Activity: 67%

## Cc1cnc(Nc2ccc3c(c2)CCN3CCO)nc1-c1cnn(C(C)C)c1
Homo sapiens
  Ratio IC50: 0.54
[1]
  Activity: 79%

## CC(C)n1cc(-c2nc(Nc3ccc4c(c3)CCN(CCCCO)C4)ncc2F)cn1
Homo sapiens
  Ratio IC50: 0.75
[1]
  Activity: 39%

## Cc1cnc(Nc2ccc3c(c2)CCN(CCCCO)C3)nc1-c1cnn(C(C)C)c1
Homo sapiens
  Ratio IC50: 3.3
[1]
  Activity: 56%

## Cc1cnc(Nc2ccc3c(c2)CCN(C/C=C/C(=O)NCCN2CCCCC2)C3)nc1-c1cnn(C(C)C)c1
Homo sapiens
  Ratio IC50: 3.8

## CCCCN1CCc2cc(Nc3ncc(C)c(-c4cnn(C(C)C)c4)n3)ccc2C1
Homo sapiens
  Ratio IC50: 1.3
[1]
  Activity: 57%

## Cc1cnc(Nc2cc3c(cc2F)CN(CCO)CC3)nc1-c1cnn(C(C)C)c1
Homo sapiens
  Ratio IC50: > 1.2

## Cc1ccc(C(=O)/C=C/C(=O)N2CCc3cc(Nc4ncc(C)c(-c5cnn(C(C)C)c5)n4)ccc3C2)cc1
L02
  IC50: 2660 nM
[2]
  Ratio IC50: 33.3
[3]
  IC50: 100 nM
Vero
  IC50: 1050 nM
[4]
  Ratio IC50: 20
[5]
  IC50: 30 nM
[6]
  IC50: 60 nM
[7]
  IC50: 50 nM
[8]
  Ratio IC50: 16.6
Homo sapiens
  Ratio IC50: 51.6
[1]
  Activity: 55%
[9]
  Ratio IC50: 10
[10]
  IC50: 3 nM
[11]
  IC50: 1430 nM

## CCOCCN1CCc2cc(Nc3ncc(C)c(-c4cnn(C(C)C)c4)n3)ccc2C1
Homo sapiens
  Ratio IC50: 1.7
[1]
  Activity: 40%

## C=CCN1CCc2cc(Nc3ncc(C)c(-c4cnn(C(C)C)c4)n3)ccc2C1
Homo sapiens
  Ratio IC50: 3
[1]
  Activity: 67%

## Cc1cnc(Nc2ccc3c(c2)CCN(C(=O)CCCN(C)C)C3)nc1-c1cnn(C(C)C)c1
Homo sapiens
  Ratio IC50: 1.5

## CC(C)n1cc(-c2nc(Nc3ccc4c(c3)CCN(C(=O)CO)C4)ncc2F)cn1
Homo sapiens
  Ratio IC50: 0.79
[1]
  Activity: 39%

## Cc1cnc(Nc2ccc3c(c2)CCN(C/C=C/C(=O)NC(C)(C)C)C3)nc1-c1cnn(C(C)C)c1
Homo sapiens
  Ratio IC50: 1.7

## CC#CCN1CCc2cc(Nc3ncc(C)c(-c4cnn(C(C)C)c4)n3)ccc2C1
Homo sapiens
  Ratio IC50: 2
[1]
  Activity: 85%

## Cc1cnc(Nc2ccc3c(c2)CCN(CC#N)C3)nc1-c1cnn(C(C)C)c1
[2]
  Ratio IC50: 8
[3]
  IC50: 56 nM
[4]
  Ratio IC50: 6.1
[5]
  IC50: 108 nM
[6]
  IC50: 43 nM
[7]
  IC50: 54 nM
[8]
  Ratio IC50: 7.7
Homo sapiens
  Ratio IC50: 8.8
[1]
  Activity: 50%
[9]
  Ratio IC50: 15.4
[10]
  IC50: 7 nM

## Cc1cnc(Nc2ccc3c(c2)CN(C(=O)/C=C/CN(C)C)CC3)nc1-c1cnn(C(C)C)c1
[2]
  Ratio IC50: 5
[3]
  IC50: 45 nM
[4]
  Ratio IC50: 10
[5]
  IC50: 23 nM
[6]
  IC50: 91 nM
[7]
  IC50: 147 nM
[8]
  Ratio IC50: 16
Homo sapiens
  Ratio IC50: 29.8
[1]
  Activity: 52%
[9]
  Ratio IC50: 2.5
[10]
  IC50: 9 nM

## COC(=O)/C=C/CN1CCc2cc(Nc3ncc(C)c(-c4cnn(C(C)C)c4)n3)ccc2C1
L02
  IC50: 1530 nM
[2]
  Ratio IC50: 44
[3]
  IC50: 88 nM
Vero
  IC50: 2330 nM
[4]
  Ratio IC50: 13
[5]
  IC50: 23 nM
[6]
  IC50: 26 nM
[7]
  IC50: 77 nM
[8]
  Ratio IC50: 38.5
Homo sapiens
  Ratio IC50: 36.3
[1]
  Activity: 53%
[9]
  Ratio IC50: 11.5
[10]
  IC50: 2 nM
[11]
  IC50: 2890 nM
